Consider four compounds from patent publication US20190100534A1, “Cephem Compounds with Latent Reactive Groups” (Gladius Pharmaceuticals, Inc., priority 2017, published 2019).

Holding throughout (type): cell-based
In test [1] the test system is Pseudomonas aeruginosa PA (URMC-3). The test can be described thus: MIC determination. Conditions: Pseudomonas aeruginosa; PA (URMC-3); CAMH broth, 20 μM Apo-Transferrin, 37° C., 18 hours; read-out: Minimum Inhibitory Concentrations, PA (URMC-3). Summed up:
(§1)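 Using an iron-depleting medium (CAMH plus 20 μM apo-transferrin), organisms at 0.5 McFarland faced compound from 64 μg/mL downward in twofold steps. Readout: visual, after 18 h at 37 °C.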

The test system of test [2] is Pseudomonas aeruginosa PA-RR-(98023895). The test can be described thus: MIC determination. Conditions: Pseudomonas aeruginosa; PA-RR-(98023895); CAMH broth, 20 μM Apo-Transferrin, 37° C., 18 hours; read-out: Minimum Inhibitory Concentrations, PA-RR-(98023895). Summed up:
as §1

Test [3] concerns Pseudomonas aeruginosa PA-RR-(G7294437). The test can be described thus: MIC determination. The following applies: Pseudomonas aeruginosa; PA-RR-(G7294437); CAMH broth, 20 μM Apo-Transferrin, 37° C., 18 hours; read-out: Minimum Inhibitory Concentrations, PA-RR-(G7294437). Summed up:
as §1

In test [4] the test system is Pseudomonas aeruginosa PA-RR-(G7304100). The test is described as follows: MIC determination. The following applies: Pseudomonas aeruginosa; PA-RR-(G7304100); CAMH broth, 20 μM Apo-Transferrin, 37° C., 18 hours; read-out: Minimum Inhibitory Concentrations, PA-RR-(G7304100). In outline:
as §1

Test [5] has as its system Pseudomonas aeruginosa PA-RR-(G8062859). The test can be described thus: MIC determination. The following applies: Pseudomonas aeruginosa; PA-RR-(G8062859); CAMH broth, 20 μM Apo-Transferrin, 37° C., 18 hours; read-out: Minimum Inhibitory Concentrations, PA-RR-(G8062859). Summed up: as §1
The test system of a further test is E. coli J53 Alone. The test is described as follows: MIC determination, isogenic E. coli strains. The following applies: for MIC: Escherichia coli, J53ALONE, 18 h, read-out: Mimimum Inhibitory Concentrations, J53 Alone; for Mimimum Inhibitory Concentrations, J53 Alone: Table 4-2, CAMH broth, 20 μM Apo-Transferrin, 37° C., 18 hours. Summed up: (§2)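 Broth microdilution in cation-adjusted Mueller-Hinton broth with 20 μM apo-transferrin, 2-fold compound series from 64 μg/mL. E. coli J53, alone or transformed with a pBC-SK(+) plasmid carrying the beta-lactamase gene (e.g. DHA-1), inoculated from 0.5 McFarland suspension; 18 h at 37° C; MIC = lowest concentration with clear well.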

The test system of test [6] is Isogenic E. coli J58 strain carrying DHA-1. The test can be described thus: MIC determination, isogenic E. coli strains. Conditions: Escherichia coli, 18 h, read-out: Mimimum Inhibitory Concentrations, DHA-1. Summed up:
as §2

In test [7] the test system is Isogenic E. coli J58 strain carrying TEM-26. The test can be described thus: MIC determination, isogenic E. coli strains. The following applies: Escherichia coli, 18 h, read-out: Mimimum Inhibitory Concentrations, TEM-26. Summed up:
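Broth microdilution in cation-adjusted Mueller-Hinton broth with 20 μM apo-transferrin, compound […] in twofold steps, inoculum from 0.5 McFarland suspension. E. coli J53 transformed with pBC-SK(+) encoding TEM-26; 18 h at 37° C, MIC as lowest concentration giving a clear well.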

Test [8] concerns Isogenic E. coli J58 strain carrying SHV-1. The test is described as follows: MIC determination, isogenic E. coli strains. Conditions: Escherichia coli, 18 h, read-out: Mimimum Inhibitory Concentrations, SHV-1. In outline:
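MIC is the lowest compound concentration leaving a transparent well after overnight (18 h) incubation at 37 °C. The test strain was E. coli J53 expressing plasmid-borne SHV-1 beta-lactamase from pBC-SK(+), adjusted to 0.5 McFarland. Compounds were twofold serially diluted, starting at 64 μg/mL, in CAMH broth supplemented with 20 μM apo-transferrin.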

In test [9] the test system is Isogenic E. coli J58 strain carrying CTX-M-14. The test can be described thus: MIC determination, isogenic E. coli strains. Conditions: Escherichia coli, 18 h, read-out: Mimimum Inhibitory Concentrations, CTX-M-14. Summed up: (§3)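 Isogenic E. coli J53 carrying plasmid-encoded CTX-M-14 or CTX-M-15 (ampicillin-selected), standardized to 0.08-0.1 OD600, incubated overnight (18 h, 37° C.) in CAMH broth plus 20 μM apo-transferrin over 2-fold compound dilutions starting at 64 μg/mL. Lowest concentration with no visible growth recorded as MIC.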

For test [10], the system named is Isogenic E. coli J58 strain carrying CTX-M-15. The test can be described thus: MIC determination, isogenic E. coli strains. The following applies: Escherichia coli, 18 h, read-out: Mimimum Inhibitory Concentrations, CTX-M-15. Summed up: as §3
In test [11] the test system is Isogenic E. coli J58 strain carrying KPC-2. The test can be described thus: MIC determination, isogenic E. coli strains. Conditions: Escherichia coli, 18 h, read-out: Mimimum Inhibitory Concentrations, KPC-2. In outline: (§4)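 Broth microdilution in cation-adjusted Mueller-Hinton broth with 20 μM apo-transferrin, compound at 64 down to […], inoculum set to 0.5 McFarland. E. coli J53 transformed with pBC-SK(+) carrying the synthetic beta-lactamase gene was used. Plates were incubated 18 h at 37 °C; MIC is the lowest concentration giving a clear well.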

Test [12] has as its system Isogenic E. coli J58 strain carrying KPC-3. The test is described as follows: MIC determination, isogenic E. coli strains. Conditions: Escherichia coli, 18 h, read-out: Mimimum Inhibitory Concentrations, KPC-3. Summed up:
as §4

The subject of test [13] is Isogenic E. coli J58 strain carrying NDM-1. The test can be described thus: MIC determination, isogenic E. coli strains. Conditions: Escherichia coli, 18 h, read-out: Mimimum Inhibitory Concentrations, NDM-1. In outline:
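E. coli J53 transformed with a pBC-SK(+) plasmid encoding NDM-1 was adjusted to 0.08-0.1 OD600. It was grown 18 h at 37° C in CAMH broth containing 20 μM apo-transferrin with twofold compound dilutions from 64 μg/mL. MIC was taken as the lowest concentration giving a transparent well.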

In test [14] the test system is Isogenic E. coli J58 strain carrying VIM-2. The test can be described thus: MIC determination, isogenic E. coli strains. The following applies: Escherichia coli, 18 h, read-out: Mimimum Inhibitory Concentrations, VIM-2. In outline:
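E. coli J53 transformed with pBC-SK(+) plasmid carrying synthesized VIM-2 gene, grown in LB to OD600 >0.1, adjusted to 0.08–0.1 OD600 in CAMH broth.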

Test [15] deals with Isogenic E. coli J58 strain carrying IMP-1. The test can be described thus: MIC determination, isogenic E. coli strains. Conditions: Escherichia coli, 18 h, read-out: Mimimum Inhibitory Concentrations, IMP-1. Summed up:
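Broth microdilution in cation-adjusted Mueller-Hinton broth with 20 μM apo-transferrin, compound serially diluted two-fold from 64 μg/mL, against E. coli J53 carrying plasmid-borne IMP-1. Inoculum adjusted to 0.5 McFarland; plates incubated 18 h at 37° C. MIC taken as lowest concentration giving a clear well.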

In the case of `CC(C)(O/N=C(\C(=O)N[C@@H]1C(=O)N2C(C(=O)O)=C(C=Cc3ccc(C[n+]4cccc(-c5ccc(O)c(O)c5)c4)cc3)CS[C@H]12)c1csc(N)n1)C(=O)O` (mixture of isomers) [Compound 413, 1-(4-((E/Z)-2-((6R,7R)-7-((Z)-2-(2-aminothiazol-4-yl)-2-(((2-carboxypropan-2-yl)oxy)imino)acetamido)-2-carboxy-8-oxo-5-thia-1-azabicyclo[4.2.0]oct-2-en-3 yl)vinyl)benzyl)-3-(3,4-dihydroxyphenyl)pyridin-1-ium], the MIC is 0.13 µg/mL in [1]; 4 µg/mL in test [2]; 1 µg/mL in [3]; ≤ 0.06 µg/mL in test [4]; 2 µg/mL in test [5]; 0.25 µg/mL in the test on E. coli J53 Alone. For the same compound, the MIC amounted to 0.13 µg/mL in [6]; 1 µg/mL in [7]; 2 µg/mL in test [8]; 2 µg/mL in test [9]; 2 µg/mL in [10]; 8 µg/mL in test [11]. Besides, the MIC in test [12] was 4 µg/mL; in test [13], > 64 µg/mL; in [14] it was 0.5 µg/mL; in test [15], 64 µg/mL. In addition, the “Mimimum Inhibitory Concentrations, J53 Alone” value in the test with E. coli J53 Alone came to 0.25 microgram/mL.

As for `CC(C)(O/N=C(\C(=O)N[C@@H]1C(=O)N2C(C(=O)O)=C(C=Cc3ccc(C[n+]4ccc(NC(=O)c5ccc(O)c(O)c5)cc4)cc3)CS[C@H]12)c1csc(N)n1)C(=O)O` (mixture of isomers) [Compound 427, 1-(4-((E/Z)-2-((6R,7R)-7-((Z)-2-(2-aminothiazol-4-yl)-2-(((2-carboxypropan-2-yl)oxy)imino)acetamido)-2-carboxy-8-oxo-5-thia-1-azabicyclo[4.2.0]oct-2-en-3-yl)vinyl)benzyl)-4-(3,4-dihydroxybenzamido)pyridin-1-ium], the MIC in test [1] is 0.25 µg/mL; in [2], 4 µg/mL; in test [3] it was ≤ 0.06 µg/mL; in [4], ≤ 0.06 µg/mL; in [5], 0.25 µg/mL; with E. coli J53 Alone, ≤ 0.06 µg/mL. Further, the MIC in [6] was found to be 1 µg/mL; in test [7], 2 µg/mL; in test [8], 1 µg/mL; in test [9], 1 µg/mL; in test [10], 1 µg/mL; in test [11], 16 µg/mL. For the same compound, the MIC in test [12] is 4 µg/mL; in test [13], > 64 µg/mL; in test [14], 1 µg/mL; in test [15], 16 µg/mL. The “Mimimum Inhibitory Concentrations, J53 Alone” value in the test with E. coli J53 Alone was ≤0.06 microgram/mL.

Consider `CC(C)(O/N=C(\C(=O)N[C@@H]1C(=O)N2C(C(=O)O)=C(C=Cc3ccc(C[N+](C)(C)Cc4cc(O)c(O)c(Cl)c4)cc3)CS[C@H]12)c1csc(N)n1)C(=O)O` (mixture of isomers) [Compound 436, N-(4-((E/Z)-2-((6R,7R)-7-((Z)-2-(2-aminothiazol-4-yl)-2-(((2-carboxypropan-2-yl)oxy)imino)acetamido)-2-carboxy-8-oxo-5-thia-1-azabicyclo[4.2.0]oct-2-en-3-yl)vinyl)benzyl)-1-(3-chloro-4,5-dihydroxyphenyl)-N,N-dimethylmethanaminium], for which the MIC was found to be 64 µg/mL in test [1]; 4 µg/mL in [2]; 0.5 µg/mL in test [3]; 4 µg/mL in test [4]; 5 µg/mL in test [5]; 0.13 µg/mL in the test on E. coli J53 Alone. Moreover, the MIC in test [6] is 0.25 µg/mL; in test [7], 2 µg/mL; in test [8] it was 1 µg/mL; in [9] it was 1 µg/mL; in [10] it was 0.5 µg/mL; in [11], 64 µg/mL. Moreover, the MIC is 8 µg/mL in [12], > 64 µg/mL in [13], 1 µg/mL in test [14] and 8 µg/mL in test [15]. For the same compound, the “Mimimum Inhibitory Concentrations, J53 Alone” value in the test on E. coli J53 Alone is 0.13 microgram/mL.

With `CC(C)(O/N=C(\C(=O)N[C@@H]1C(=O)N2C(C(=O)O)=C(C=Cc3ccc(C[N+]4(C)Cc5cc(O)c(O)cc5C4)cc3)CS[C@H]12)c1csc(N)n1)C(=O)O` (mixture of isomers) [Compound 424, 2-(4-((E/Z)-2-((6R,7R)-7-((Z)-2-(2-aminothiazol-4-yl)-2-(((2-carboxypropan-2-yl)oxy)imino)acetamido)-2-carboxy-8-oxo-5-thia-1-azabicyclo[4.2.0]oct-2-en-3-yl)vinyl)benzyl)-5,6-dihydroxy-2-methylisoindolin-2-ium], the MIC in test [1] is 0.13 µg/mL; in test [2] it was 8 µg/mL; in test [3] it was 0.25 µg/mL; in [4], ≤ 0.06 µg/mL; in test [5], 2 µg/mL; in the test with E. coli J53 Alone, 0.25 µg/mL. Besides, the MIC in test [6] was 0.5 µg/mL; in [7], 4 µg/mL; in test [8], 2 µg/mL; in test [9] it was 1 µg/mL; in [10], 2 µg/mL; in test [11] it was 32 µg/mL. The MIC was 8 µg/mL in test [12], > 64 µg/mL in test [13], 2 µg/mL in test [14] and > 64 µg/mL in [15]. Further, in the test with E. coli J53 Alone, the “Mimimum Inhibitory Concentrations, J53 Alone” value is 0.25 microgram/mL.
